PubChem BioAssay (NCI)
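At the GI50, growth is halved. The concentration for full growth arrest is given as TGI.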

What was measured:
Assay in all cases: inhibition of tumour cell growth, NCI panel, 384-well format
[1] = test system: SNB-19 CNS
[2] = test system: HL-60(TB) leukemia
[3] = test system: UACC-257 melanoma
[4] = test system: PC-3 prostate
[5] = test system: RPMI-8226 leukemia
[6] = test system: UACC-62 melanoma
[7] = test system: DU-145 prostate
[8] = test system: SF-539 CNS
[9] = test system: NCI-H23 lung
[10] = test system: A549 NSCLC
[11] = test system: OVCAR-8 ovarian
[12] = test system: CCRF-CEM leukemia
[13] = test system: OVCAR-4 ovarian
[14] = test system: SF-268 CNS
[15] = test system: SK-MEL-28 melanoma
[16] = test system: 786-0 renal
[17] = test system: HT29 colon
[18] = test system: OVCAR-3 ovarian
[19] = test system: MALME-3M melanoma
[20] = test system: HCC-2998 colon
[21] = test system: HCT-116 colon
[22] = test system: BT-549 breast
[23] = test system: TK-10 renal
[24] = test system: SK-MEL-5 melanoma
[25] = test system: NCI-H226 lung
[26] = test system: MDA-MB-435 melanoma
[27] = test system: NCI-H460 NSCLC
[28] = test system: ACHN renal
[29] = test system: OVCAR-5 ovarian
[30] = test system: HOP-62 NSCLC
[31] = test system: NCI-H322M lung
[32] = test system: T-47D breast
[33] = test system: SNB-75 CNS
[34] = test system: NCI-H522 lung
[35] = test system: K-562 leukemia
[36] = test system: COLO 205 colon
[37] = test system: A498 renal
[38] = test system: HCT-15 colon
[39] = test system: EKVX NSCLC
[40] = test system: KM12 colon
[41] = test system: SK-OV-3 ovarian
[42] = test system: NCI/ADR-RES ovarian
[43] = test system: MOLT-4 leukemia
[44] = test system: SF-295 CNS
[45] = test system: IGROV1 ovarian
[46] = test system: UO-31 renal
[47] = test system: U251 glioblastoma
[48] = test system: MDA-MB-231 breast
[49] = test system: SW-620 colon
[50] = test system: HOP-92 NSCLC
[51] = test system: HS 578T breast
[52] = test system: M14 melanoma
[53] = test system: SN12C renal
[54] = test system: CAKI-1 renal
[55] = test system: RXF 393 renal
[56] = test system: LOX IMVI melanoma
[57] = test system: MCF7 breast

## CNC(=O)c1ccccc1Nc1cc(Nc2ccc(N3CCOCC3)cc2OC)ncc1C(F)(F)F
[1]
  GI50: 10.9 µM
  TGI: > 100 µM
[2]
  GI50: 0.375 µM
  TGI: 1.43 µM
[3]
  GI50: 0.397 µM
  TGI: 23.3 µM
[4]
  GI50: 15.9 µM
  TGI: > 100 µM
[5]
  GI50: 0.35 µM
  TGI: 3.3 µM
[6]
  GI50: 0.354 µM
  TGI: 14.4 µM
[7]
  GI50: 1.97 µM
  TGI: 24.3 µM
[8]
  GI50: 1.7 µM
  TGI: 16.8 µM
[9]
  GI50: 0.277 µM
  TGI: 9.47 µM
[10]
  GI50: 0.371 µM
  TGI: 13 µM
[11]
  GI50: 4.08 µM
  TGI: 19.8 µM
[12]
  GI50: 0.722 µM
  TGI: 11.5 µM
[13]
  GI50: 16.1 µM
  TGI: > 100 µM
[14]
  GI50: 0.143 µM
  TGI: 1.67 µM
[15]
  GI50: 2 µM
  TGI: 16.7 µM
[16]
  GI50: 2.75 µM
  TGI: 19.8 µM
[17]
  GI50: 0.416 µM
  TGI: 14.1 µM
[18]
  GI50: 4.45 µM
  TGI: 37.9 µM
[19]
  GI50: 0.303 µM
  TGI: 15.1 µM
[20]
  GI50: 0.654 µM
  TGI: 15.8 µM
[21]
  GI50: 0.632 µM
  TGI: 13.2 µM
[22]
  GI50: 2.82 µM
  TGI: 9.86 µM
[23]
  GI50: 7.3 µM
  TGI: 32 µM
[24]
  GI50: 0.767 µM
  TGI: 18 µM
[25]
  GI50: 0.876 µM
  TGI: > 100 µM
[26]
  GI50: 0.752 µM
  TGI: > 100 µM
[27]
  GI50: 0.316 µM
  TGI: 10.6 µM
[28]
  GI50: 5.62 µM
  TGI: 69.7 µM
[29]
  GI50: 0.66 µM
  TGI: 27.5 µM
[30]
  GI50: 2.62 µM
  TGI: 51.3 µM
[31]
  GI50: 5.28 µM
  TGI: 46.2 µM
[32]
  GI50: 9.99 µM
  TGI: 23.3 µM
[33]
  GI50: 4.25 µM
  TGI: 21.4 µM
[34]
  GI50: 0.877 µM
  TGI: 20.4 µM
[35]
  GI50: 2.69 µM
  TGI: > 100 µM
[36]
  GI50: 0.309 µM
  TGI: 1.85 µM
[37]
  GI50: 11 µM
  TGI: 28.3 µM
[38]
  GI50: 2.88 µM
  TGI: 34.2 µM
[39]
  GI50: 0.653 µM
  TGI: 11.8 µM
[40]
  GI50: 0.523 µM
  TGI: 8.06 µM
[41]
  GI50: 5.44 µM
  TGI: 41.9 µM
[42]
  GI50: 1.52 µM
  TGI: 4.64 µM
[43]
  GI50: 0.969 µM
  TGI: 10.5 µM
[44]
  GI50: 2.12 µM
  TGI: 38.7 µM
[45]
  GI50: 0.229 µM
  TGI: 12.4 µM
[46]
  GI50: 2.9 µM
  TGI: 16.9 µM
[47]
  GI50: 4.4 µM
  TGI: 48 µM
[48]
  GI50: 2.76 µM
  TGI: 49.2 µM
[49]
  GI50: 0.658 µM
  TGI: 12.6 µM
[50]
  GI50: 1.02 µM
  TGI: 10.2 µM
[51]
  GI50: 2.78 µM
  TGI: 10.1 µM
[52]
  GI50: 0.233 µM
  TGI: 11.1 µM
[53]
  GI50: 3.31 µM
  TGI: 27.1 µM
[54]
  GI50: 6.33 µM
  TGI: 21 µM
[55]
  GI50: 2.82 µM
  TGI: 14 µM
[56]
  GI50: 1.23 µM
  TGI: 12.1 µM
[57]
  GI50: 0.447 µM
  TGI: 18.5 µM
